Source: patent publication US20110033944A1, “METHOD FOR MEASURING HYPOCHLORITE ION” (SEKISUI MEDICAL CO., LTD., priority 2003, published 2011)

Tests used:
[1] = Reactivity of fluorescence probe to singlet oxygen (EP-1); assay type: physicochemical; conditions: 10 μM probe, EP-1 100 μM, pH 7.4, 37° C.
Protocol: (§1) In the following example, a compound wherein R^1 is 2-carboxyphenyl group, and R^2 is 4-aminophenyl group in the general formula (I) (hereinafter referred to as “APF”) and a compound wherein R^3 is 2-carboxyphenyl group, and R^4 is 4-hydroxyphenyl group in the general formula (II) (hereinafter referred to as “HPF”) were used. Each of HPF and APF is dissolved in dimethylformamide (DMF) to obtain a 10 mM solution, and then added with a 100 mM sodium phosphate buffer (pH 7.4) to obtain a final concentration of 10 μM, unless otherwise specifically mentioned.
(§2) Excitation spectra and fluorescence spectra were analyzed with Hitachi F4500. The slit width was 2.5 nm in both of the excitation spectra and fluorescence spectra. The photomultiplier voltage was 950 V. Unless otherwise specifically mentioned, excitation wavelength was 490 nm, fluorescence wavelength was 515 nm, and the measurement was performed at 37° C.
(§3) Reactivities of APF and HPF to various reactive species containing oxygen were studied. […] The measurement was performed with excitation wavelength at 500 nm and with fluorescence wavelength at 520 nm for DCFH.
A 10 μM fluorescence probe solution was put in a fluorescence cell, added with 3-(1,4-dihydro-1,4-epidioxy-1-naphthyl)propionic acid (EP-1; a final concentration of 100 μM), and was reacted for 30 minutes. […]

[2] = test system: Myeloperoxidase (human); assay: Myeloperoxidase/H2O2 system, fluorescence measurement of generated hypochlorite ion; assay type: biochemical; conditions: 10 μM probe, myeloperoxidase 11.2 nM, 150 mM NaCl, 37° C.
Protocol: as §1, §2
(A) By using a 100 mM sodium phosphate buffer (pH 7.4) containing 150 mM sodium chloride, a 10 μM HPF solution and a 10 μM APF solution were prepared. Myeloperoxidase (human) were added to these solutions to obtain a final concentration of 11.2 nM. Each of the solution was put in each fluorescence cell, and a change in the fluorescence intensity with passage of time was measured. The temperature of the solutions were set at 37° C. […]

[3] = Reactivity of fluorescence probe to nitric oxide (NOC13); assay type: physicochemical; conditions: 10 μM probe, NOC13 100 μM, pH 7.4, 37° C.
Protocol: as §1, §2, §3
A 10 μM fluorescence probe solution was put in a fluorescence cell, added with 1-hydroxy-2-oxo-3-(3-aminopropyl)-3-ethyl-1-triazine (NOC13; a final concentration of 100 μM), and was reacted for 30 minutes. […]

[4] = Reactivity of fluorescence probe to superoxide (KO2); assay type: physicochemical; conditions: 10 μM probe, KO2 100 μM, pH 7.4, 37° C.
Protocol: as §1, §2, §3
A 10 μM fluorescence probe solution was put in a fluorescence cell, added with KO2 (a final concentration of 100 μM), and was reacted for 30 minutes. Fluorescence intensities before the addition of KO2 and 30 minutes after the addition were measured.

[5] = test system: neutrophils; assay: Fluorescence imaging of PMA-stimulated neutrophils; assay type: cell-based, porcine; conditions: 10 μM probe, PMA 2 ng/mL, excitation 488 nm, emission 505-550 nm
Protocol: According to the method described in Wakeyama, H., Takeshige, K., Takayanagi, R., and Minakami S. (1982) Biochem. J. 205, 593-601 and Kakinuma, K., Kaneda, M., Chiba, T., and Ohnishi, T. (1986) J. Biol. Chem. 261, 9426-9432, neutrophils were obtained from 1.8 liters of porcine blood. Erythrocytes in the buffy coat collected from the blood were hemolyzed with a large volume of an ice-cooled 0.2% aqueous sodium chloride solution for […] and then the preparation was promptly mixed with an equal volume of a 1.6% aqueous sodium chloride solution to restore the isotonic condition. Neutrophils were separated from platelets and mononuclear cells by the Conrey-Ficoll method. The neutrophils were suspended in Krebs Ringer phosphate buffer (114 mM NaCl, 4.6 mM KCl, 2.4 mM MgSO4, 1.0 mM, CaCl2, 15 mM NaH2PO4/Na2HPO4, pH7.4).
The separated neutrophils were seeded onto a glass-bottomed dish. Then the cells were loaded with HPF or APF (10 μM) after incubation for 30 minutes at room temperature. These neutrophils were stimulated with 4β-phorbol-12-myristate-13-acetate (PMA)(2 ng/mL). Fluorescence imaging was measured twice in each experiment: one is before and the other is 10 minutes after the stimulation with PMA. […]

[6] = Reactivity of fluorescence probe to hydrogen peroxide; assay type: physicochemical; conditions: 10 μM probe, H2O2 100 μM, pH 7.4, 37° C.
Protocol: as §1, §2, §3
A 10 μM fluorescence probe solution was put in a fluorescence cell, added with H2O2 (a final concentration of 100 μM), and was reacted for 30 minutes. Fluorescence intensities before the addition of H2O2 and 30 minutes after the addition were measured.

[7] = Reactivity of fluorescence probe to hydroxyl radical (H2O2 / ferrous perchlorate); assay type: physicochemical; conditions: 10 μM probe, H2O2 1 mM + ferrous perchlorate 100 μM, pH 7.4, room temperature
Protocol: as §1, §2, §3
A 10 μM fluorescence probe solution was added with an aqueous hydrogen peroxide solution (a final concentration of 1 mM), and further slowly added with an aqueous ferrous perchlorate (a final concentration of 100 μM). […]

[8] = Reactivity of fluorescence probe to hypochlorite ion (sodium hypochlorite); assay type: physicochemical; conditions: 10 μM probe, sodium hypochlorite 1.0 μM, pH 7.4, 37° C.
Protocol: as §1, §2, §3
A 10 μM fluorescence probe solution was put in a fluorescence cell, added with an aqueous sodium hypochlorite solution (a final concentration of 1.0 μM). Fluorescence intensities before and after the addition of an aqueous sodium hypochlorite solution were measured.

Structure (SMILES)	Reactivity to singlet oxygen (fluorescence intensity before and 30 minutes after addition) [1]	Change in fluorescence intensity with time on addition of hydrogen peroxide (FIG. 1(A)) ([2]; H2O2 1 μM)	Increase in fluorescence intensity before and after addition of hydrogen peroxide (FIG. 1(B)) ([2]; H2O2 0.1-1.0 μM, 5 minutes)	Reactivity to nitric oxide (fluorescence intensity before and 30 minutes after addition) [3]	Reactivity to superoxide (fluorescence intensity before and 30 minutes after addition) [4]	Fluorescence intensity of probe-loaded neutrophils before and 10 minutes after stimulation with PMA [5]	Reactivity to hydrogen peroxide (fluorescence intensity before and 30 minutes after addition) [6]	Reactivity to hydroxyl radical (fluorescence intensity before and after addition) [7]	Reactivity to hypochlorite ion (fluorescence intensity before and after addition) [8]
Nc1ccc(Oc2ccc3c(-c4ccccc4C(=O)O)c4ccc(=O)cc-4oc3c2)cc1 [APF]	9	a significant increase in the fluorescence intensity was observed	fluorescence intensity was increased in a manner dependent on the concentration of the added hydrogen peroxide	<1	6	a significant increase was observed in fluorescence intensity	<1		
O=C(O)c1ccccc1C1c2cc(Cl)c(O)cc2Oc2cc(O)c(Cl)cc21 [DCFH, 2′,7′-dichlorodihydrofluorescein, reference compound]	26			150	67		190	7400	86
